One data set addresses T1, hCA I (Homo sapiens, UniProt P00915).
T1 construct: made in house
The data set is described as follows: stopped-flow CO2 hydrase assay, hCA I. The class given is biochemical. On the procedure:
(§1) Newly synthesized hybrids 5a–n were tested for their inhibitory activity against four physiologically and pharmacologically CA isoforms, namely cytosolic hCA I and II, and tumor-associated isoforms hCA IX and XII, using a CO2 hydrase stop-flow assay. Acetazolamide (AAZ), clinically used sulphonamide, was used as the standard drug. […] The ability of imidazoles 5a–n toward inhibition of hCA I, II (cytosolic) as well as hCA IX and XII (transmembrane, tumor-associated isoforms) using stopped-flow CO2 hydrase assay was evaluated. See Appendix A.
(§2) The enzymes are recombinant proteins prepared in our lab. […] The uncatalyzed rates were determined in the same manner and subtracted from the total observed rates. Stock solutions of inhibitor (0.1 mM) were prepared in distilled-deionized water and dilutions up to 0.01 nM were done thereafter with the assay buffer. Inhibitor and enzyme solutions were preincubated together for 15 min at room temperature prior to assay, in order to allow for the formation of the E-I complex. The inhibition constants were obtained by non-linear least-squares methods using PRISM 3 and the Cheng-Prusoff equation, and represent the mean from at least three different determinations.

The next data set has as its target T2, hCA XII (Homo sapiens, UniProt O43570).
T2 construct: made in house
Nature of the data set: stopped-flow CO2 hydrase assay, hCA XII. Format: biochemical. As to the method:
Newly synthesized hybrids 5a–n were tested for their inhibitory activity against four physiologically and pharmacologically CA isoforms, namely cytosolic hCA I and II, and tumor-associated isoforms hCA IX and XII, using a CO2 hydrase stop-flow assay. Acetazolamide (AAZ), clinically used sulphonamide, was used as the standard drug. […]. The ortho substitution in the aryl moiety appears to correlate with higher inhibitory effects against both hCA IX and XII. […] […]. The ability of imidazoles 5a–n toward inhibition of hCA I, II (cytosolic) as well as hCA IX and XII (transmembrane, tumor-associated isoforms) using stopped-flow CO2 hydrase assay was evaluated. See Appendix A.
The carbonic anhydrase catalyzed CO2 hydration actions for all new compounds herein reported have were assayed utilizing an instrument of Applied Photophysics stopped-flow. The enzymes are recombinant proteins prepared in our lab. […]. The uncatalyzed rates were determined in the same manner and subtracted from the total observed rates. Stock solutions of inhibitor (0.1 mM) were prepared in distilled-deionized water and dilutions up to 0.01 nM were done thereafter with the assay buffer. Inhibitor and enzyme solutions were preincubated together for 15 min at room temperature prior to assay, in order to allow for the formation of the E-I complex. The inhibition constants were obtained by non-linear least-squares methods using PRISM 3 and the Cheng-Prusoff equation, and represent the mean from at least three different determinations.

The target in another data set is T3, hCA IX (Homo sapiens, UniProt Q16790).
T3 construct: made in house
The data set is described as follows: stopped-flow CO2 hydrase assay, hCA IX. The class given is biochemical. The settings on record: for Selectivity Ratio hCA XII/ hCA IX: selectivity for hCA IX over hCA XII; for Ki: stopped-flow CO2 hydrase assay; for fold lower inhibitory activity on hCA IX than the ortho-derivative: 5f vs 5e, 5h vs 5g; for IC50: quoted in docking discussion, read-out: IC50 CA-IX (in vitro inhibitory activity quoted in docking study). On the procedure: as §1, §2

Another data set concerns the target T4, hCA II (Homo sapiens, UniProt P00918).
T4 construct: made in house
The data set is described as follows: stopped-flow CO2 hydrase assay, hCA II. Format: biochemical. On the procedure:
as §1, §2

For data set [1], the system named is epithelial cancer cell line (A-549). The data set is described as follows: Antiproliferative activity, MTT assay, A-549. Format: cell-based. The settings on record: Homo sapiens, A549; A-549, MTT; read-out: Antiproliferative Activity IC50 ± SEM A-549. As to the method: (§3) The antiproliferative activity of 5b, 5d, 5e, 5g, 5j and 5n against four human cancer cell lines including pancreatic cancer cell line (Panc-1), breast cancer cell line (MCF-7), colon cancer cell line (HT-29) and epithelial cancer cell line (A-549) using MTT assay and doxorubicin was applied as the reference compound [22, 23]. Graph Pad Prism software (Graph Pad Software, San Diego, CA, USA) was used to calculate the median inhibition concentration (IC50) and results are recorded in Table 2.
(§4) The antiproliferative activity of 5b, 5d, 5e, 5g, 5j and 5n against four human cancer cell lines including pancreatic cancer cell line (Panc-1), breast cancer cell line (MCF-7), colon cancer cell line (HT-29) and epithelial cancer cell line (A-549) using MTT assay and doxorubicin was applied as the reference compound [22, 23]. See Appendix A.
(§5) To explore the antiproliferative potential of compounds MTT assay was performed according to previously reported procedure using different cell lines To explore the antiproliferative potential of compounds propidium iodide fluorescence assay was performed using different cell lines. To calculate the total nuclear DNA, a fluorescent dye (propidium iodide, PI) is used which can attach to the DNA, thus offering a quick and precise technique. PI cannot pass through the cell membrane and its signal intensity can be considered as directly proportional to quantity of cellular DNA. Cells whose cell membranes are damaged or have changed permeability are counted as dead ones. The assay was performed by seeding the cells of different cell lines at a density of 3000–7500 cells/well (in 200 µL medium) in culture plates followed by incubation for 24 h at 37 °C in humidified 5% CO2/95% air atmospheric conditions. The medium was removed; the compounds were added to the plates at 10 µM concentrations (in 0.1% DMSO) in triplicates, followed by incubation for 48 h. DMSO (0.1%) was used as control. After incubation, medium was removed followed by the addition of PI (25 µL, 50µg/mL in water/medium) to each well of the plates. At −80 °C, the plates were allowed to freeze for 24 h, followed by thawing at 25 °C. A fluorometer (Polar-Star BMG Tech, Offenburg, Germany) was used to record the readings at excitation and emission wavelengths of 530 and 620 nm for each well. The percentage cytotoxicity of compounds was calculated using the following formula: %Cytotoxicity=(Ac−Atc)/Ac×100 where Atc = Absorbance of treated cells and Ac = Absorbance of control. Erlotinib was used as positive control in the assay.

The test system of data set [2] is colon cancer cell line (HT-29). Nature of the data set: Antiproliferative activity, MTT assay, HT-29. The settings on record: Homo sapiens; HT-29, MTT; read-out: Antiproliferative Activity IC50 ± SEM HT-29. The class given is cell-based. As to the method:
as §3, §4, §5

The subject of data set [3] is breast cancer cell line (MCF-7). The data set is described as follows: Antiproliferative activity, MTT assay, MCF-7. The settings on record: Homo sapiens, MCF7; MCF-7, MTT; read-out: Antiproliferative Activity IC50 ± SEM MCF-7. Format: cell-based. As to the method: as §3, §4, §5
In general terms: Formazan colour is commonly taken as a measure of viable cells.

For data set [4], the system named is four human cancer cell lines (Panc-1, MCF-7, HT-29, A-549). The data set is described as follows: Antiproliferative activity, MTT assay, average of the four cell lines. The class given is cell-based. As to the method:
as §3, §4, §5

Data set [5] concerns pancreatic cancer cell line (Panc-1). Nature of the data set: Antiproliferative activity, MTT assay, Panc-1. Format: cell-based. The note with it: Homo sapiens; Panc-1, MTT; read-out: Antiproliferative Activity IC50 ± SEM Panc-1. On the procedure: as §3, §4, §5

Where two headings read alike, the source gives them in different places. Where only a bound is given, the exact number is not on record here.

T2 sequence (O43570 25-354): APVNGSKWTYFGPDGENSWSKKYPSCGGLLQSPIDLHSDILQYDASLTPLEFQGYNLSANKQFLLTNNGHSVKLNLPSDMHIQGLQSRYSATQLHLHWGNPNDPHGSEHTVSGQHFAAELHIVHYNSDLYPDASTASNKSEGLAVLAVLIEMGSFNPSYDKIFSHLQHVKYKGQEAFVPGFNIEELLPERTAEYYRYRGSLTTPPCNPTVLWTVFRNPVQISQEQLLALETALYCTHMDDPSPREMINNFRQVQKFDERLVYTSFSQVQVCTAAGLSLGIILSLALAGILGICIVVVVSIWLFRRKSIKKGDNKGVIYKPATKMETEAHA
T1 sequence (P00915 whole entry): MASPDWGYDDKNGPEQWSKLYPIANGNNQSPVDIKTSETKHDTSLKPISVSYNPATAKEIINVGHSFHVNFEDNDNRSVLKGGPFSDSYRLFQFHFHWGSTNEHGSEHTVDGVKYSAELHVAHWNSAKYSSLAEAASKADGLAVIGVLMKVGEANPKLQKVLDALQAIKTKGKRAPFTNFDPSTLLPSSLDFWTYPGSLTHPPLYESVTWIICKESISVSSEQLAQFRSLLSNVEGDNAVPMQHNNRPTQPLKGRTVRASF

Take `NS(=O)(=O)c1ccc(-n2c(-c3ccccc3)nc(-c3ccccc3)c2-c2ccccc2)cc1` [Compound 5a, 4-(2,4,5-Triphenyl-1H-imidazol-1-yl)benzene sulfonamide]: the melting point was in the range of 210 to 212 °C. The Ki at hCA I was more than 100 µM. In addition, the affinity at hCA XII corresponds to a Ki of 5.5 µM. For the same molecule, on hCA IX, the “Selectivity Ratio hCA XII/ hCA IX” value amounted to 1.90 and affinity was put at a Ki of 2.9 µM. The molecule also had a Ki on hCA II of more than 100 µM.
Turning to `COc1cccc2c1C(=O)c1c(O)c3c(c(O)c1C2=O)C[C@@](O)(C(=O)CO)C[C@@H]3O[C@H]1C[C@H](N)[C@H](O)[C@H](C)O1` [Doxorubicin, reference compound], the half-maximal inhibitory concentration (IC50) is 1.2 ± 0.8 µM in data set [1]; 1 ± 0.8 µM in [2]; 0.9 ± 0.6 µM in data set [3]; 1.1 µM in [4] (average of A-549, MCF-7, Panc-1, HT-29); 1.4 ± 0.6 µM in [5]. Further, the GI50 in [4] (four cancer cell lines, read-out: GI50) amounted to 1.1 µM.
With `NS(=O)(=O)c1ccc(-n2c(-c3ccc(C(=O)O)cc3)nc(-c3ccccc3)c2-c2ccccc2)cc1` [Compound 5l, 4-(4,5-Diphenyl-1-(4-sulfamoylphenyl)-1H-imidazol-2-yl)benzoic acid], the melting point lay in the range of 200 to 202 °C. On hCA I, this molecule showed a Ki of more than 100 µM. On hCA XII, this molecule showed a Ki of 6.8 µM. For the same molecule, on hCA IX, the “Selectivity Ratio hCA XII/ hCA IX” value is 0.80 and the inhibitory constant (Ki) was determined as 8.5 µM. The Ki on hCA II is more than 100 µM.
As to `NS(=O)(=O)c1ccc(-n2c(-c3ccc(Cl)cc3)nc(-c3ccccc3)c2-c2ccccc2)cc1` [Compound 5c, 4-(2-(4-Chlorophenyl)-4,5-diphenyl-1H-imidazol-1-yl)benzene sulfonamide], the melting point lay within 230 to 232 °C. This molecule displayed an inhibition constant (Ki) at hCA I of more than 100 µM. Further, the affinity at hCA XII corresponds to a Ki of 3.7 µM. At hCA IX, the “Selectivity Ratio hCA XII/ hCA IX” value worked out at 0.45 and the Ki stood at 8.2 µM. Besides, the Ki on hCA II is more than 100 µM.
In turn, `COc1ccc(-c2nc(-c3ccccc3)c(-c3ccccc3)n2-c2ccc(S(N)(=O)=O)cc2)cc1` [Compound 5h, 4-(2-(4-Methoxyphenyl)-4,5-diphenyl-1H-imidazol-1-yl)benzene sulfonamide] registered a melting point of 235 to 237 °C. On hCA I, this molecule gave a Ki of more than 100 µM. This molecule returned a Ki on hCA XII of 3.9 µM. Besides, on hCA IX, the “fold lower inhibitory activity on hCA IX than the ortho-derivative” value is 22 fold, the “Selectivity Ratio hCA XII/ hCA IX” value is 0.50 and the affinity corresponds to a Ki of 7.4 µM. The same molecule showed a Ki on hCA II of more than 100 µM.
`COc1ccc(-c2nc(-c3ccccc3)c(-c3ccccc3)n2-c2ccc(S(N)(=O)=O)cc2)cc1OC` [Compound 5i, 4-(2-(3,4-Dimethoxyphenyl)-4,5-diphenyl-1H-imidazol-1-yl)benzene sulfonamide] showed a melting point of 260 to 262 °C. In addition, on hCA I, the inhibitory constant (Ki) is more than 100 µM. This molecule also yielded a Ki on hCA XII of 6.6 µM. Besides, at hCA IX, the IC50 turned out to be 9.2 µM, the “Selectivity Ratio hCA XII/ hCA IX” value amounted to 0.70 and the Ki worked out at 9.2 µM. At hCA II, this molecule registered a Ki of more than 100 µM.
In turn, `CN(C)c1ccc(-c2nc(-c3ccccc3)c(-c3ccccc3)n2-c2ccc(S(N)(=O)=O)cc2)cc1` [Compound 5k, 4-(2-(4-(Dimethylamino)phenyl)-4,5-diphenyl-1H-imidazol-1-yl)benzene sulfonamide] yielded a melting point of 224 to 226 °C. Further, the Ki on hCA I is more than 100 µM. The molecule further gave a Ki on hCA XII of 6.8 µM. For the same molecule, on hCA IX, the IC50 was 9.3 µM, the “Selectivity Ratio hCA XII/ hCA IX” value was 0.70 and the Ki stood at 9.3 µM. Moreover, the Ki on hCA II is more than 100 µM.
With `NS(=O)(=O)c1ccc(-n2c(-c3ccc(O)cc3)nc(-c3ccccc3)c2-c2ccccc2)cc1` [Compound 5f, 4-(2-(4-Hydroxyphenyl)-4,5-diphenyl-1H-imidazol-1-yl)benzene sulfonamide], the Ki is more than 100 µM at hCA I, 7.1 µM at hCA XII, 8.4 µM on hCA IX and more than 100 µM on hCA II. Besides, the “fold lower inhibitory activity on hCA IX than the ortho-derivative” value at hCA IX is recorded as 10 fold. Besides, the “Selectivity Ratio hCA XII/ hCA IX” value on hCA IX stood at 0.90.
`CCOC(=O)c1ccc(-c2nc(-c3ccccc3)c(-c3ccccc3)n2-c2ccc(S(N)(=O)=O)cc2)cc1` [Compound 5m, Ethyl 4-(4,5-diphenyl-1-(4-sulfamoylphenyl)-1H-imidazol-2-yl)benzoate] had a melting point of 216 to 218 °C. In addition, the inhibitory constant (Ki) at hCA I (stopped-flow CO2 hydrase assay, read-out: Ki hCA I) was more than 100 µM. Also, the Ki on hCA XII stood at 6.2 µM. At hCA IX, the “Selectivity Ratio hCA XII/ hCA IX” value worked out at 0.70 and affinity was put at a Ki of 8.8 µM. On hCA II, this molecule came in with a Ki of more than 100 µM.

Usually melting point stands for the temperature of the solid-liquid transition. What is called Ki is the equilibrium dissociation constant of an inhibitor or competing ligand from its target. One may read the IC50 as the midpoint of a concentration-inhibition curve. A word on the GI50: it is the concentration at which growth is held to half of that of the control.

(Values after PMC8400968, “Design, Synthesis, Biological Evaluation, and Computational Studies of Novel Tri-Aryl Imidazole-Benzene Sulfonamide Hybrids as Promising Selective Carbonic Anhydrase IX and XII Inhibitors” (Molecules, 2021).)
